Experiments:
[1] = Oral bioavailability in dog at 2.7 mg/kg; format: ADME, organism-based, Canis lupus familiaris; settings: in vivo
[2] = Apparent permeability from apical to basolateral side in human Caco-2 cells; format: ADME, cell-based
Hepatitis C virus = assay: Antiviral activity against HCV in human HuH7 cells by replicon assay; format: functional, organism-based, Hepacivirus hominis; settings: Huh-7
[3] = Cytotoxicity against human HuH7 cells; format: cell-based, Huh-7
[4] = Inhibition of HCV NS3 protease; parameters: species or system Hepacivirus hominis
[5] = Apparent systemic clearance in dog at 1.1 mg/kg, iv relative to liver blood flow; format: ADME, organism-based, Canis lupus familiaris; parameters: dose 1.1 mg/kg, route intravenous; settings: in vivo

Structure (SMILES)	bioavailability [1] [%]	Papp A→B [2] [×10⁻⁶ cm/s]	EC50 (Hepatitis C virus) [µM]	IC50 [4] [µM]	clearance [5] [mL/min/kg]	CC50 [3] [µM]
C=CC1C[C@]1(NC(=O)[C@@H]1C[C@@H](Oc2cc(-c3csc(NC(C)C)n3)nc3cc(OC)ccc23)CN1C(=O)[C@@H](NC(=O)OC1CCCC1)C(C)(C)C)P(=O)(OCOC(=O)OCC)OCOC(=O)OCC (stereo partly specified)			0.039	0.28	28.3	
C=CC1C[C@]1(NC(=O)[C@@H]1C[C@@H](Oc2cc(-c3csc(NC(C)C)n3)nc3cc(OC)ccc23)CN1C(=O)[C@@H](NC(=O)OC1CCCC1)C(C)(C)C)P(=O)(O)OCC (stereo partly specified)			0.36	0.007		> 50
C=CC1C[C@]1(NC(=O)[C@@H]1C[C@@H](Oc2cc(-c3csc(NC(C)C)n3)nc3cc(OC)ccc23)CN1C(=O)[C@@H](NC(=O)OC1CCCC1)C(C)(C)C)P(=O)(OCOC(=O)OCC1CC1)OCOC(=O)OCC1CC1 (stereo partly specified)			0.041	0.085		

Continued by falling EC50 (Hepatitis C virus), values first:

bioavailability [1] [%]	Papp A→B [2] [×10⁻⁶ cm/s]	EC50 (Hepatitis C virus) [µM]	IC50 [4] [µM]	clearance [5] [mL/min/kg]	Structure (SMILES)	CC50 [3] [µM]
1	0.2	0.092	0.0009		C=CC1C[C@]1(NC(=O)[C@@H]1C[C@@H](Oc2cc(-c3csc(NC(C)C)n3)nc3cc(OC)ccc23)CN1C(=O)[C@@H](NC(=O)OC1CCCC1)C(C)(C)C)P(=O)(O)O (stereo partly specified)	> 50
		0.006	0.003		C=CC1C[C@]1(NC(=O)[C@@H]1C[C@@H](Oc2cc(-c3csc(NC(C)C)n3)nc3cc(OC)ccc23)CN1C(=O)[C@@H](NC(=O)OC1CCCC1)C(C)(C)C)C(=O)O (stereo partly specified)	> 50
